Measured values reported in patent US12617756B2 (ABIVAX, priority 2019, dated 2026).

test system: RSV A2; test: Screening for RSV inhibition using Viral ToxGlo assay (cytopathic effect inhibition in HEp-2 cells); assay type: cell-based, Respiratory Syncytial Virus (RSV); conditions: RSV A2 in HEp-2 cells, MOI 0.5, 72h p.i., cytopathic effect inhibition relative to virus control, Viral ToxGlo luminescence
Summary of the method: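 HEp-2 cells in 2% FBS medium infected with RSV A2 right after compound addition (max 1% DMSO), uninfected wells used for cytotoxicity. After 72 h p.i. at 37 °C/5% CO2, cell viability read by Viral ToxGlo luminescence as measure of cytopathic effect.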

| SMILES | EC50 [nM] |
| --- | --- |
| O=C(N=C1NCCN1)c1cc(F)c(Nc2cccc(C3=NCCN3)c2)c(C2CC2)c1 [Compound 169, 3-cyclopropyl-4-{[3-(4,5-dihydro-1H-imidazol-2-yl)phenyl]amino}-5-fluoro-N-(imidazolidin-2-ylidene)benzamide] | 13.6 |

same assay, conditions: human respiratory syncytial virus; RSV A2 in HEp-2 cells, MOI 0.5, 72h p.i., cytopathic effect inhibition relative to virus control, Viral ToxGlo luminescence

| SMILES | EC50 [nM] |
| --- | --- |
| O=C(N=C1NCCN1)c1cc(F)c(Nc2cccc(C(=O)N3CCOCC3)c2F)c(C2CC2)c1 [Compound 158, 3-cyclopropyl-5-fluoro-4-{[2-fluoro-3-(morpholine-4-carbonyl)phenyl]amino}-N—[imidazolidin-2-ylidene]benzamide] | 6.8 |
| O=C(N=C1NCCN1)c1cc(F)c(Nc2nccc(C(=O)N3C[C@@H]4C[C@H]3CO4)c2F)c(C2CC2)c1 [Compound 159, 3-cyclopropyl-5-fluoro-4-({3-fluoro-4-[(1S,4S)-2-oxa-5-azabicyclo[2.2.1]heptane-5-carbonyl]pyridin-2-yl}amino)-N—[imidazolidin-2-ylidene]benzamide] | 225 |
| CC(C)=CCn1nnc(-c2cccc(Nc3ccc(C(=O)/N=C4\NCCN4C)cc3C3CC3)c2)n1 [Compound 160, 3-cyclopropyl-4-({3-[2-(3-methylbut-2-en-1-yl)-2H-1,2,3,4-tetrazol-5-yl]phenyl}amino)-N-[1-methylimidazolidin-2-ylidene]benzamide] | 545 |
| CC1(C(=O)Nc2cccc(Nc3ccc(C(=O)N=C4NCCN4)cc3C3CC3)c2)COC1 [Compound 161, N-{3-[(2-cyclopropyl-4-{[imidazolidin-2-ylidene]carbamoyl}phenyl)amino]phenyl}-3-methyloxetane-3-carboxamide] | 690 |
| CC1(C(=O)Nc2cccc(Nc3c(F)cc(C(=O)N=C4NCCN4)cc3C3CC3)c2)COC1 [Compound 163, N-{3-[(2-cyclopropyl-6-fluoro-4-{[imidazolidin-2-ylidene]carbamoyl}phenyl)amino]phenyl}-3-methyloxetane-3-carboxamide] | 35 |
| O=C(N=C1NCCN1)c1cc(F)c(Nc2nccc(C(=O)NC34CC(C3)C4)c2Cl)c(C2CC2)c1 [Compound 164] | 3.8 |
| CC1(NC(=O)c2cccc(Nc3ccc(C(=O)N=C4NCCN4)cc3C3CC3)c2Cl)CC1 [Compound 167, 4-({2-chloro-3-[(1-methylcyclopropyl)carbamoyl]phenyl}amino)-3-cyclopropyl-N-[imidazolidin-2-ylidene]benzamide] | 17.8 |
